≈ marks a conversion by molar mass, not a printed value. Calls of active or inactive are those of the source. The calls are words filed in the database; no cut-off is given here.
Assays:
[1] = Inhibition of B-type Bemisia tabaci (sweet potato whitefly) esterase using 31.25 uM of 1-naphthyl butyrate as substrate after 120 min
[2] = test system: Bemisia tabaci; assay: Non-competitive inhibition of B-type Bemisia tabaci (sweet potato whitefly) esterase using 1-naphthyl butyrate as substrate after 10 to 120 min
[3] = Inhibition of B-type Bemisia tabaci (sweet potato whitefly) esterase using 500 uM of 1-naphthyl butyrate as substrate after 120 min
[4] = Inhibition of B-type Bemisia tabaci (sweet potato whitefly) esterase using 500 uM of 1-naphthyl butyrate as substrate after 10 min
[5] = test system: Bemisia tabaci; assay: Inhibition of B-type Bemisia tabaci (sweet potato whitefly) oxidase-mediated O-deethylation using 18 uM of 7-ethoxycoumarin as substrate assessed as residual activity after 10 min relative to control
[6] = test system: Bemisia tabaci; assay: Inhibition of B-type Bemisia tabaci (sweet potato whitefly) oxidase-mediated O-deethylation using 285 uM of 7-ethoxycoumarin as substrate assessed as residual activity after 120 min relative to control
[7] = test system: Bemisia tabaci; assay: Inhibition of B-type Bemisia tabaci (sweet potato whitefly) oxidase-mediated O-deethylation using 285 uM of 7-ethoxycoumarin as substrate assessed as residual activity after 10 min relative to control
[8] = test system: Bemisia tabaci; assay: Reversible inhibition of B-type Bemisia tabaci (sweet potato whitefly) esterase using 1-naphthyl butyrate as substrate after 10 to 120 min
[9] = test system: Bemisia tabaci; assay: Resistant factor, ratio of LC50 for […] (sweet potato whitefly) in presence of EN 16/5-1; assay type: functional
[10] = test system: Bemisia tabaci; assay: Resistant factor, ratio of LC50 for […] (sweet potato whitefly) in presence of PBO; assay type: functional
[11] = test system: Bemisia tabaci; assay: Resistant factor, ratio of LC50 for drug-susceptible Bemisia tabaci SUD-S (sweet potato whitefly) to LC50 for drug-resistant Bemisia tabaci GUAMIX (sweet potato whitefly); assay type: functional
[12] = test system: Bemisia tabaci; assay: Insecticidal activity against drug-resistant Bemisia tabaci GUAMIX (sweet potato whitefly) in cotton plant leaf assessed as mortality after 48 hr in presence of EN 16/5-1 pretreated 5 hr before compound challenge; assay type: functional
[13] = test system: Bemisia tabaci; assay: Insecticidal activity against drug-resistant Bemisia tabaci GUAMIX (sweet potato whitefly) in cotton plant leaf assessed as mortality after 48 hr; assay type: functional
[14] = test system: Bemisia tabaci; assay: Insecticidal activity against drug-susceptible Bemisia tabaci SUD-S (sweet potato whitefly) in cotton plant leaf assessed as mortality after 48 hr; assay type: functional
[15] = test system: Bemisia tabaci; assay: Insecticidal activity against drug-susceptible Bemisia tabaci SUD-S (sweet potato whitefly) in cotton plant leaf assessed as mortality after 48 hr in presence of PBO pretreated 5 hr before compound challenge; assay type: functional
[16] = test system: Bemisia tabaci; assay: Insecticidal activity against drug-resistant Bemisia tabaci GUAMIX (sweet potato whitefly) in cotton plant leaf assessed as mortality after 48 hr in presence of PBO pretreated 5 hr before compound challenge; assay type: functional
[17] = test system: Bemisia tabaci; assay: Insecticidal activity against drug-susceptible Bemisia tabaci SUD-S (sweet potato whitefly) in cotton plant leaf assessed as mortality after 48 hr in presence of EN 16/5-1 pretreated 5 hr before compound challenge; assay type: functional

Row | SMILES | IC50 [1] [µM] | inhibition [2] | IC50 [3] [µM] | IC50 [4] [µM] | Activity [5] [%] | Activity [6] [%] | Activity [7] [%] | inhibition [8] | RatioLC50 [9] | RatioLC50 [10] | RatioLC50 [11] | LC50 [12] [µg/mL] | LC50 [13] [µg/mL] | LC50 [14] [µg/mL] | LC50 [15] [µg/mL] | LC50 [16] [µg/mL] | LC50 [17] [µg/mL]
1 | CCCCOCCOCCOCc1cc2c(cc1CCC)CCO2 | 4.8 | Active | 5.4 | 6.5 | 42 | 82 | 78 | Active | – | – | – | – | – | – | – | – | –
2 | O=[N+]([O-])/N=C1\NCCN1Cc1ccc(Cl)nc1 [IMIDACLOPRID] | – | – | – | – | – | – | – | – | 900 | 65.5 | >670 | 847 | > 1000 | 1.49 (≈ 5.83 µM) | 0.49 | 32.1 | 0.94
3 | CCCCOCCOCCOCc1cc2c(cc1CCC)OCO2 [PIPERONYL BUTOXIDE] | 5.4 | Active | 5.1 | 4.7 | 16 | 27 | 24 | Active | – | – | – | – | – | – | – | – | –

Source: ChEMBL document CHEMBL3045497, “An analogue of piperonyl butoxide facilitates the characterisation of metabolic resistance” (Pest Manag Sci, 2009)
